Columns and labels:
[1] = molecular target: Peptidyl-prolyl cis-trans isomerase A (Rattus norvegicus) (UniProt P10111); experiment: In vitro inhibition of the rotamase activity of cyclophilin A (CyPA) […]
[2] = molecular target: Peptidyl-prolyl cis-trans isomerase A (Rattus norvegicus, UniProt P10111); experiment: In vitro inhibition of the rotamase activity of cyclophilin A (CyPA)
Peptidyl-prolyl cis-trans isomerase A, sequence (P10111 whole entry): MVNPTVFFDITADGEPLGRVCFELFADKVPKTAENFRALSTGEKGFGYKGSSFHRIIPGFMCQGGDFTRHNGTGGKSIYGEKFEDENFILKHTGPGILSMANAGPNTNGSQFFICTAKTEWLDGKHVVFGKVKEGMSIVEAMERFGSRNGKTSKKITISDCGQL

Peptidyl-prolyl cis-trans isomerase A (Rattus norvegicus), sequence (P10111 whole entry): as above

| SMILES | inhibition [1] [%] | IC50 [2] [nM] |
| --- | --- | --- |
| O=C(NC1CCCC(NC(=O)NC23CC4CC(CC(C4)C2)C3)C1)NC12CC3CC(CC(C3)C1)C2 (stereo not drawn) | 28 | – |
| O=C(Nc1ccc(I)cc1)Nc1cc(NC(=O)Nc2ccc(I)cc2)c(Br)cc1Br | 100 | 590 |
| O=C(NCC(c1ccccc1)c1ccccc1)Nc1cccc(NC(=O)NCC(c2ccccc2)c2ccccc2)c1 | 100 | – |
| CCCCNC(=O)Nc1cccc(NC(=O)NCCCC)c1 | 23 | – |
| O=C(Nc1cccc(NC(=O)c2cc(Cl)cc(Cl)c2)c1)c1cc(Cl)cc(Cl)c1 | – | 930 |
| O=C(NCc1ccccc1)Nc1cccc(NC(=O)c2cc(Cl)cc(Cl)c2)c1 | – | 3350 |
| Cc1ccccc1CNC(=O)Nc1cccc(NC(=O)c2cc(Cl)cc(Cl)c2)c1 | – | 2120 |
| O=C(Nc1cccc(NC(=O)c2cccnc2)c1)c1cccnc1 | 6 | – |
| S=C(Nc1cc(Cl)cc(Cl)c1)Nc1cccc(NC(=S)Nc2cc(Cl)cc(Cl)c2)c1 | – | 480 |
| O=C(Nc1ccc(C(F)(F)F)cc1)Nc1cccc(NC(=O)c2cc(Cl)cc(Cl)c2)c1 | – | 940 |
| O=C(Nc1cc(Cl)cc(Cl)c1)Nc1cccc(NC(=O)Nc2cc(Cl)cc(Cl)c2)c1 | 100 | – |
| O=C(Cc1ccc2ccccc2c1)Nc1cccc(NC(=O)c2cc(Cl)cc(Cl)c2)c1 | – | 880 |
| CN(C)c1ccc(NC(=O)Nc2cc(NC(=O)Nc3ccc(N(C)C)cc3)c(Br)cc2Br)cc1 | 98 | 2900 |
| O=C(NC1CCCCC1)NC1CCCC(NC(=O)NC2CCCCC2)C1 (stereo not drawn) | 24 | – |
| O=C(CC(c1ccccc1)c1ccccc1)Nc1cccc(NC(=O)c2cc(Cl)cc(Cl)c2)c1 | – | 870 |
| O=C(NCc1cccc2ccccc12)Nc1cccc(NC(=O)NCc2cccc3ccccc23)c1 | 100 | – |
| O=C(Nc1cccc(NC(=O)c2cc(Cl)cc(Cl)c2)c1)Nc1ccc(Br)cc1Br | – | 620 |
| O=C(Nc1cc(Cl)cc(Cl)c1)Nc1cccc(NC(=O)c2cc(Cl)cc(Cl)c2)c1 | – | 690 |
| O=C(Cc1ccccc1)Nc1cccc(NC(=O)c2cc(Cl)cc(Cl)c2)c1 | 44 | – |
| O=C(Cc1cccc2ccccc12)Nc1cccc(NC(=O)c2cc(Cl)cc(Cl)c2)c1 | – | 1120 |

Next, values leading:

| inhibition [1] [%] | IC50 [2] [nM] | SMILES |
| --- | --- | --- |
| 19 | – | O=C(NCc1ccccc1)Nc1cccc(NC(=O)NCc2ccccc2)c1 |
| 100 | 9500 | COc1cccc(NC(=O)NC2CCCC(NC(=O)Nc3cccc(OC)c3)C2)c1 (stereo not drawn) |
| 32 | – | O=C(Nc1ccc(Cl)cc1)NC1CCCC(NC(=O)Nc2ccc(Cl)cc2)C1 (stereo not drawn) |
| 100 | 4550 | O=C(Nc1cccc2ccccc12)NC1CCCC(NC(=O)Nc2cccc3ccccc23)C1 (stereo not drawn) |
| 40 | – | Cc1ccc(NC(=O)NC2CCCC(NC(=O)Nc3ccc(C)cc3C)C2)c(C)c1 (stereo not drawn) |
| 100 | – | O=C(Nc1ccc(Br)cc1Br)NC1CCCC(NC(=O)Nc2ccc(Br)cc2Br)C1 (stereo not drawn) |
| 7 | – | CC(C)(C)NC(=O)NC1CCCC(NC(=O)NC(C)(C)C)C1 (stereo not drawn) |
| 22 | – | N#Cc1cccc(NC(=O)NC2CCCC(NC(=O)Nc3cccc(C#N)c3)C2)c1 (stereo not drawn) |
| 93 | 4000 | O=C(Nc1cccc(NC(=O)Nc2ccon2)c1)Nc1ccon1 |
| 0 | – | O=C(Nc1cccc(NC(=O)Nc2ccccn2)c1)Nc1ccccn1 |
| 100 | – | O=C(Nc1cc(Cl)cc(Cl)c1)NC1CCCC(NC(=O)Nc2cc(Cl)cc(Cl)c2)C1 (stereo not drawn) |
| – | 1410 | CCc1ccccc1NC(=O)Nc1cccc(NC(=O)c2cc(Cl)cc(Cl)c2)c1 |
| 11 | – | O=C(NCc1ccccc1)NC1CCCC(NC(=O)NCc2ccccc2)C1 (stereo not drawn) |
| 38 | – | N#Cc1cccc(NC(=O)Nc2cccc(NC(=O)Nc3cccc(C#N)c3)c2)c1 |
| 100 | – | O=C(Nc1cccc(NC(=O)Nc2ccc(Br)cc2Br)c1)Nc1ccc(Br)cc1Br |
| – | 1180 | O=C(Nc1ccccc1)Nc1cccc(NC(=O)c2cc(Cl)cc(Cl)c2)c1 |
| 100 | – | Cc1ccc(NC(=O)Nc2cccc(NC(=O)Nc3ccc(C)cc3C)c2)c(C)c1 |
| 8 | – | COc1cccc(NC(=O)Nc2cccc(NC(=O)Nc3cccc(OC)c3)c2)c1 |

Source: ChEMBL document CHEMBL1136731, “Synthesis and biological evaluation of non-peptidic cyclophilin ligands” (J Med Chem, 2003)
